“And” between values parts separate entries of the source, which are not always exact repeats. Identical values can stand only once. Non-standard residues stand in square brackets, D forms with d. Residues, ends and D or L forms follow the SMILES beside them.
Columns and labels:
[1] = biological target: T1, hGHRH(1-44)-NH2 binding sites in rat anterior pituitary (Rattus norvegicus, UniProt Q02644); assay: Relative binding affinity in rat anterior pituitary preparations, [125I-Tyr10]hGHRH(1-44)-NH2 radioligand; settings: values compared to hGHRH(1-29)-NH2
T1 construct: from tissue; host or cells: anterior pituitary of 2-month old male Sprague Dawley rats
T1 sequence (Q02644 23-423 isoform Q02644-2 limits assumed): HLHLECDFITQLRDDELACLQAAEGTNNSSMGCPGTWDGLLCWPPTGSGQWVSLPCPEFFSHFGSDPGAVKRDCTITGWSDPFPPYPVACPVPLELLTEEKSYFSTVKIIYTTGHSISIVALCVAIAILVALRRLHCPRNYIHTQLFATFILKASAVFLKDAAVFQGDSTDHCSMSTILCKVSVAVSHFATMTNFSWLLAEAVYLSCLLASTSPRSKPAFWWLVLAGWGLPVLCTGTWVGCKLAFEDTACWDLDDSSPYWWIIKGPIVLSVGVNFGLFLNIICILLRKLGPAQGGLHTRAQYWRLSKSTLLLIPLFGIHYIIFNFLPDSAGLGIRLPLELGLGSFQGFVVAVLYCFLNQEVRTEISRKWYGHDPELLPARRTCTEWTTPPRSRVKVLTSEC
Excerpt: Initial selection of a candidate from the original 14 polysubstituted GHRH analogs described in the U.S. Pat. No. 5,854,216 was based upon in vitro data on receptor affinity in 2-month old male Sprague Dawley rat anterior pituitary preparations. The embodiments are based on the affinity of selected GHRH analogs for the human GHRH receptor (hGHRH-R) in baby hamster kidney (BHK) cells transfected with hGHRH-R, and on resistance to proteolysis in rat serum, human plasma or human serum. More precisely, the preferred drug candidates were selected, as compared to hGHRH(1-29)-NH2, for: i-their increased relative binding affinity to hGHRH(1-44)-NH2 binding sites in rat anterior pituitary in vitro as well as to hGHRH-R in BHK-expressing cells in vitro; and ii-their relative resistance to proteolysis in vitro.

[2] = system: malnourished subjects with CKD; assay: Phase II CKD: adverse events; assay type: in vivo, human; settings: 28 days
Excerpt: The number and nature of AEs was consistent with subjects with chronic renal failure. Although the number of AEs reported by subjects in the GHRH(1-29)NH2 synthetic analog group was higher than the number reported by subjects in the placebo group (70 vs. 58), there was no clear pattern to distinguish the treatments from each other in safety terms. This might be partly due to the relatively low number of subjects in the study but, overall, the 2 groups were generally balanced with respect to the nature and incidence of AEs.

[3] = system: IGF-1, IGFBP-1 and IGFBP-3; assay: Phase II CKD: total IGF-1, IGFBP-1 and IGFBP-3; assay type: in vivo, human; settings: day 42
[4] = system: malnourished subjects with CKD; assay: Phase II CKD: biochemical markers of nutritional and metabolic state (plasma proteins, glucose control, lipids); assay type: in vivo, human
Procedure: Plasma proteins were measured as markers for renal disease and malnourishment. Blood samples were analysed locally. Albumin (g/L) were measured at screening, baseline and on Day 28. Blood samples for measurement of pre-albumin (g/L) were collected at baseline, Day 14 and Day 28. Transferrin (g/L) was measured at baseline, Day 7, Day 14 and Day 28.
HbA1c (%) was measured at screening and Day 28 as a marker for long-term glucose control. Fasting insulin (μunits/mL) and fasting glucose (mmol/L) were measured at baseline, Day 7, Day 14 and Day 28 as markers for short-term glucose control.
Fasting triglyceride (mmol/L) and fasting cholesterol (mmol/L) were measured at baseline, Day 7, Day 14 and Day 28 as markers for lipid metabolism.

human GHRH receptor = biological target: T2, human GHRH receptor (Homo sapiens, UniProt Q02643); assay: 125I-GHRH competitive binding assay in BHK cell membrane preparations; settings: in comparison with hGHRH(1-29)NH2, ratio IC50 hGHRH(1-29)-NH2/IC50 analog
T2 construct: expressed in transfected cells; host or cells: BHK (baby hamster kidney) 570 cells, membrane preparations
T2 sequence (Q02643 23-423): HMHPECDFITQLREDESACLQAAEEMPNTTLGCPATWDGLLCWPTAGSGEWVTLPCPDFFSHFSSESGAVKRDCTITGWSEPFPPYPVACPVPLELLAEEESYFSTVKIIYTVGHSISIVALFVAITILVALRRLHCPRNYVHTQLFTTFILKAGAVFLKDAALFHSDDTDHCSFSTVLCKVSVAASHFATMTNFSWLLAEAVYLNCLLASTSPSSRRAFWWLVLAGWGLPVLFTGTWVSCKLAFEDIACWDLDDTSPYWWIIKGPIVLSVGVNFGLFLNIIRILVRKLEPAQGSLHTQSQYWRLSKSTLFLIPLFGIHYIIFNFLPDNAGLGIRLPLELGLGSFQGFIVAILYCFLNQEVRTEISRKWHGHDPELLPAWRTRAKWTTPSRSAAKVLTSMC
Procedure: Non specific binding was determined in presence of 1 μM hGHRH(1-29)NH2. Incubation was carried out at equilibrium (23° C., 60 min) and stopped by centrifugation (12,000 g, 5 min, at 4° C.). The radioactivity content in pellets was determined by gamma counting. The affinity of hGHRH(1-29) NH2 was tested in each experiment to assess the validity of the assay and determine the relative affinity of the analogs.
Values represent the mean±SEM of 3 experiments performed in triplicate for the analogs and the mean±SEM of 2 experiments performed in triplicate for hGHRH(1-44) NH2.
For the binding assay results presented in Tables 8 to 11, values represent the mean±SEM of 8 independent experiments performed in triplicate for the analogs and the mean±SEM of 4 experiments performed in triplicate for hGHRH(1-29)NH2. […] The relative affinity was obtained by taking the ratio IC50 of hGHRH (1-29)-NH2/IC50 analog.

in vivo = settings: Beagle, dog
Procedure: No mortality, adverse clinical sign, effects on body weight, food consumption, opthalmology, haematology, coagulation, clinical chemistry, urinalysis or organ weights were noted following the dosing or recovery periods. Microscopic findings at the injection sites were noted among treated animals, however, the changes were reversed following the recovery period. A no adverse effect level for this study was determined to be 3 mg/kg.

CC[C@H](C)[C@H](NC(=O)[C@H](C)NC(=O)[C@H](CC(=O)O)NC(=O)[C@@H](C)NC(=O)[C@@H](N)Cc1ccc(O)cc1)C(=O)N[C@@H](Cc1ccccc1)C(=O)N[C@H](C(=O)N[C@@H](CC(N)=O)C(=O)N[C@@H](CO)C(=O)N[C@H](Cc1ccc(O)cc1)C(=O)N[C@@H](CCCNC(=N)N)C(=O)N[C@@H](CCCCN)C(=O)N[C@H](C(=O)N[C@@H](CC(C)C)C(=O)N[C@H](C)C(=O)N[C@@H](CCC(N)=O)C(=O)N[C@@H](CC(C)C)C(=O)N[C@@H](CO)C(=O)N[C@@H](C)C(=O)N[C@@H](CCCNC(=N)N)C(=O)N[C@@H](CCCCN)C(=O)N[C@@H](CCCCN)C(=O)N[C@@H](CC(C)C)C(=O)N[C@@H](CCC(N)=O)C(=O)N[C@@H](CC(=O)O)C(=O)N[C@H](C(=O)N[C@@H](CCSC)C(=O)N[C@@H](CO)C(=O)N[C@@H](CCCNC(=N)N)C(N)=O)[C@@H](C)CC)C(C)C)[C@@H](C)O [GHRH analog #5, [D-Ala^2, D-Tyr^10, D-Ala^15, Lys^22] hGHRH(1-29)-NH2] (H-Y[dA]DAIFTNS[dY]RKVL[dA]QLSARKKLQDIMSR-NH2)
Relative binding affinity in rat anterior pituitary [1]: 1.04 ± 0.40
Number of AEs reported [2]: 70
Median IGF-1 after treatment discontinuation [3]: 368.2 ng/mL
Fasting cholesterol: mean difference (GHRH-Placebo) ([4]; ITT): −0.58
Albumin: median ([4]; ITT, Baseline): 41.0 g/L
Fasting glucose: median ([4]; ITT, Baseline): 5.1 mmol/L
Fasting insulin: median ([4]; ITT, Baseline): 8.4 μ units/mL
Fasting triglycerides: median ([4]; ITT, Baseline): 1.40 mmol/L
Pre-albumin: mean (SD) ([4]; ITT, Baseline): 0.216 (0.088) g/L
Transferrin: mean (SD) ([4]; ITT, Baseline): 2.202 (0.315) g/L
Albumin: median ([4]; ITT, Day 28): 40.4 g/L
Fasting glucose: median ([4]; ITT, Day 28): 5.4 mmol/L
Fasting insulin: median ([4]; ITT, Day 28): 12.1 μ units/mL
Fasting triglycerides: median ([4]; ITT, Day 28): 1.98 mmol/L
HbA1c: median ([4]; ITT, Day 28): 5.606%
Pre-albumin: mean (SD) ([4]; ITT, Day 28): 0.201 (0.103) g/L
Transferrin: mean (SD) ([4]; ITT, Day 28): 2.383 (0.370) g/L
Fasting cholesterol: median ([4]; ITT, Day 28, listed as GHRH(1-29)NH2 synthetic analog): 4.69 mmol/L
HbA1c: median ([4]; ITT, Screening): 5.516%
Fasting glucose: ratio of means ([4]; ITT, vs placebo): 1.030
Fasting insulin: ratio of means ([4]; ITT, vs placebo): 1.79 and 1.788
Fasting triglycerides: ratio of means ([4]; ITT, vs placebo): 1.199
Pre-albumin: comparison or ratio of means ([4]; ITT, vs placebo): −0.093
Transferrin: comparison or ratio of means ([4]; ITT, vs placebo): 0.06
Fasting insulin: median ([4]; day 7): 14.2 μunits/ml
Fasting insulin: median ([4]; day 14): 15.5 μunits/ml
Reduction of mean cholesterol in almost all patients (10/12) ([4]; in vivo): up to 10%
Relative binding affinity (R1) in hGHRH-R BHK-expressing cells (human GHRH receptor; listed as 5): 939 ± 249
Relative binding affinity (R1) in hGHRH-R BHK-expressing cells (human GHRH receptor; listed as GHRH analog # 5): 939 ± 249
Relative binding affinity (R1) in hGHRH-R BHK-expressing cells (human GHRH receptor; listed as GHRH(1-29)NH2 synthetic analog): 939
NOAEL at 672 h (in vivo): 3 mg/kg
